Assay results taken from the NIST ThermoML archive (doi:10.1016/j.fluid.2006.11.005).

How the values were obtained:
[1] = 101.33 kPa, Liquid
[2] = xn = mol fraction of the nth substance listed; settings: 101.33 kPa, Liquid

c1ccccc1 [benzene]
[1]
Settings | mass density [kg/m3]
288.15 K | 884.246
293.15 K | 878.918
298.15 K | 873.582
303.15 K | 868.233
308.15 K | 862.871
313.15 K | 857.498

c1ccccc1 [benzene] + ClC(Cl)Cl
[2], x2 = 0
Settings | mass density [kg/m3]
288.15 K | 884.246
293.15 K | 878.918
298.15 K | 873.582
303.15 K | 868.233
308.15 K | 862.871
313.15 K | 857.498

CCO [ethanol]
[1]
Settings | mass density [kg/m3]
288.15 K | 793.721
293.15 K | 789.454
298.15 K | 785.164
303.15 K | 780.853
308.15 K | 776.51
313.15 K | 772.138

CCO [ethanol] + ClC(Cl)Cl
[2], x1 = 1
Settings | mass density [kg/m3]
288.15 K | 793.721
293.15 K | 789.454
298.15 K | 785.164
303.15 K | 780.853
308.15 K | 776.51
313.15 K | 772.138

ClC(Cl)Cl [trichloromethane]
[1]
Settings | mass density [kg/m3]
288.15 K | 1498.08
293.15 K | 1488.64
298.15 K | 1479.15
303.15 K | 1469.61
308.15 K | 1460.03
313.15 K | 1450.41

ClC(Cl)Cl [trichloromethane] + c1ccccc1
mass density [kg/m3], [2]
Settings | 288.15 K | 293.15 K | 298.15 K | 303.15 K | 308.15 K | 313.15 K
x1 = 0.1001 | 939.224 | 933.584 | 927.935 | 922.271 | 916.586 | 910.883
x1 = 0.2 | 995.529 | 989.568 | 983.589 | 977.59 | 971.567 | 965.527
x1 = 0.3072 | 1057.3 | 1050.96 | 1044.61 | 1038.23 | 1031.82 | 1025.38
x1 = 0.3995 | 1111.96 | 1105.29 | 1098.58 | 1091.85 | 1085.08 | 1078.27
x1 = 0.4997 | 1172.45 | 1165.38 | 1158.28 | 1151.15 | 1143.98 | 1136.78
x1 = 0.6 | 1234.48 | 1226.99 | 1219.47 | 1211.92 | 1204.33 | 1196.74
x1 = 0.6652 | 1275.68 | 1267.9 | 1260.09 | 1252.24 | 1244.34 | 1236.41
x1 = 0.7991 | 1362.32 | 1353.91 | 1345.46 | 1336.97 | 1328.42 | 1319.82
x1 = 0.8009 | 1363.45 | 1355.03 | 1346.58 | 1338.09 | 1329.56 | 1321.04
x1 = 0.9 | 1429.59 | 1420.68 | 1411.71 | 1402.7 | 1393.63 | 1384.52
x1 = 1 | 1498.08 | 1488.64 | 1479.15 | 1469.61 | 1460.03 | 1450.41
